Results on 29 compounds are retold here after US20260232666A1, “COMPOSITIONS AND METHODS FOR INHIBITION OF RAS” (TheRas, Inc., priority 2023, published 2026).

The target in test [1] is T1, GppNHp-loaded KRAS4b (amino acids 1-169) G12C/C118S protein (Homo sapiens, UniProt P01116, C118S/G12C).
T1 construct: KRAS4b (amino acids 1-169) G12C/C118S protein; made in house
Kind of test: Covalent cysteine 12 modification by MALDI-TOF MS, GppNHp-loaded KRAS G12C. The test is classed as binding. As to conditions: 15 minutes reaction time point. The gist of the method:
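1 μM protein + cpd (1:2.5), HEPES 20 mM/NaCl 150 mM/MgCl2 1 mM pH 7.3, RT, dark, 15 min. Linear MALDI-TOF, sinapinic acid matrix. % mod = modified/(modified + unmodified) peak height.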

Test [2] has as its system pERK in NCI-H358 cells. Kind of test: Cell-based pERK HTRF assay (pERK inhibition in H358 cells). Conditions: 30 min incubation. The gist of the method: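 NCI-H358 cells were seeded at 4×10^4 cells/well in RPMI/10% FBS, then treated next day for 30 min at 0.25% DMSO (9-point, 3-fold series from 75 μM). Lysates were read by HTRF (d2/Eu cryptate antibody pair, 615 nm emission) after 4–24 h at room temperature to give pERK IC50.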
A general note: In TR-FRET formats the signal depends on donor and acceptor labels being close together.

Bounds are passed on as bounds.

Usually IC50 stands for the concentration that gives 50% inhibition. In the case of `C=CC(=O)N1CC[C@@H](N(C)c2nc(OC[C@@]34CCCN3C[C@H](F)C4)nc3c(F)c(-c4ccc(F)c5sc(N)c(C#N)c45)c(Cl)cc23)[C@@H]1C` (atropisomer, axis not shown) [Compound 68], in test [1], the “GppNHp-KRAS G12C percent of modification” value is on record as “A (percent of modification ≥70%)”. In test [2] (Homo sapiens, NCI-H358, 0.5 h), this compound had a half-maximal inhibitory concentration (IC50) of less than 100 nM. As to `C=CC(=O)N1CC[C@@H](N(C)c2nc(OC[C@@]34CCCN3C[C@H](F)C4)nc3c(F)c(-c4ccc(F)c5sc(N)c(C#N)c45)c(Cl)cc23)[C@@H]1C` (atropisomer, axis not shown) [Compound 69], the “GppNHp-KRAS G12C percent of modification” value in test [1] is given as “D (percent of modification <10%)”. Besides, in test [2], the IC50 lay within 100 to 1000 nM. As to `C=CC(=O)N1CCC(N(C)c2nc(OC[C@@H]3CCCN3C3CC3)nc3c(F)c(-c4ccc(F)c5sc(N)c(C#N)c45)c(C(F)(F)F)cc23)[C@H]1C` (stereo partly drawn) [Compound 1], the “GppNHp-KRAS G12C percent of modification” value in test [1] is “C (10%≤percent of modification <50%)”. Besides, the IC50 in test [2] (Homo sapiens, NCI-H358, 0.5 h) is 100 to 1000 nM. The matching figures for `C=CC(=O)N1CCC(N(C)c2nc(OC[C@@]34CCCN3C[C@H](F)C4)nc3c(F)c(-c4ccc(F)c5sc(N)c(C#N)c45)c(Cl)cc23)[C@H]1CC` (stereo partly drawn) [Compound 2]: “D (percent of modification <10%)” and less than 100 nM. The matching figures for `C=CC(=O)N1CCC(N(C)c2nc(OC[C@@]34CCCN3C[C@H](F)C4)nc3c(F)c(-c4ccc(F)c5sc(N)c(C#N)c45)c(C(F)(F)F)cc23)[C@H]1CC` (stereo partly drawn) [Compound 3]: “C (10%≤percent of modification <50%)” and less than 100 nM. For `C=CC(=O)N1C[C@H]2C[C@@H]1CN2c1nc(OC[C@@]23CCCN2C[C@H](F)C3)nc2c(F)c(-c3ccc(F)c4sc(N)c(C#N)c34)c(C(F)(F)F)cc12` [Compound 37], in that order: “D (percent of modification <10%)” and 100 to 1000 nM.

With `C=CC(=O)N1CC[C@@H](N(CC)c2nc(OC[C@@]34CCCN3C[C@H](F)C4)nc3c(F)c(-c4ccc(F)c5sc(N)c(C#N)c45)c(C(F)(F)F)cc23)[C@H]1CC` [Compound 39], the “GppNHp-KRAS G12C percent of modification” value in test [1] was “C (10%≤percent of modification <50%)”. In test [2] (Homo sapiens, NCI-H358, 0.5 h), this compound had an IC50 of less than 100 nM. For `C=CC(=O)N1CC[C@@H](N(CC)c2nc(OC[C@@]34CCCN3C[C@H](F)C4)nc3cc(-c4ccc(F)c5sc(N)c(C#N)c45)c(C#N)cc23)[C@@H]1CC` [Compound 40], in that order: “D (percent of modification <10%)” and 100 to 1000 nM.

For the compound `C=CC(=O)N1CC[C@@H](N(CC)c2nc(OC[C@@]34CCCN3C[C@H](F)C4)nc3cc(-c4ccc(F)c5sc(N)c(C#N)c45)c(F)cc23)[C@@H]1CC` [Compound 41], the “GppNHp-KRAS G12C percent of modification” value in test [1] is listed as “D (percent of modification <10%)”. In test [2] (Homo sapiens, NCI-H358, 0.5 h), the 50% inhibitory concentration (IC50) was 100 to 1000 nM. The matching figures for `C=CC(=O)N1CC[C@@H](N(C)c2nc(OC[C@@]34CCCN3C[C@H](F)C4)nc3cc(-c4ccc(F)c5sc(N)c(C#N)c45)c(C#N)cc23)[C@H]1CC` [Compound 42]: “A (percent of modification ≥70%)” and less than 100 nM.

Consider `C=CC(=O)N1CC[C@@H](N(CC)c2nc(OC[C@@H]3C[C@@H](OC)CN3C)nc3c(F)c(-c4ccc(F)c5sc(N)c(C#N)c45)c(C(F)(F)F)cc23)[C@H]1C` [Compound 45, 4-(4-(((2R,3R)-1-acryloyl-2-methylpyrrolidin-3-yl)(ethyl)amino)-8-fluoro-2-(((2S,4R)-4-methoxy-1-methylpyrrolidin-2-yl)methoxy)-6-(trifluoromethyl)quinazolin-7-yl)-2-amino-7-fluorobenzo[b]thiophene-3-carbonitrile], for which the “GppNHp-KRAS G12C percent of modification” value in test [1] is recorded as “A (percent of modification ≥70%)”. Also, the IC50 in test [2] (Homo sapiens, NCI-H358, 0.5 h) is less than 100 nM. `C=CC(=O)N1CC2CC(C1)N2c1nc(OC[C@@]23CCCN2C[C@H](F)C3)nc2c(F)c(-c3ccc(F)c4sc(N)c(C#N)c34)c(C(F)(F)F)cc12` [Compound 46]: the “GppNHp-KRAS G12C percent of modification” value in test [1] was “D (percent of modification <10%)”. Also, in test [2] (Homo sapiens, NCI-H358, 0.5 h), the IC50 is 100 to 1000 nM. Consider `C=CC(=O)N1CC2CCC(C1)N2c1nc(OC[C@@]23CCCN2C[C@H](F)C3)nc2c(F)c(-c3ccc(F)c4sc(N)c(C#N)c34)c(C(F)(F)F)cc12` [Compound 49], for which the “GppNHp-KRAS G12C percent of modification” value in test [1] is on record as “C (10%≤percent of modification <50%)”. The compound further gave an IC50 in test [2] (Homo sapiens, NCI-H358, 0.5 h) of less than 100 nM. For `C=CC(=O)N1CC[C@@H](N(CC)c2nc(OC[C@@]34CCCN3C[C@H](F)C4)nc3c(F)c(-c4ccc(F)c5sc(N)c(C#N)c45)ccc23)[C@@H]1CC` [Compound 50], in that order: “D (percent of modification <10%)” and 100 to 1000 nM. `C=CC(=O)N1CC[C@@H](N(CC)c2nc(OC[C@@H]3C[C@@H](F)CN3C)nc3c(F)c(-c4ccc(F)c5sc(N)c(C#N)c45)c(C(F)(F)F)cc23)[C@H]1C` [Compound 52]: the “GppNHp-KRAS G12C percent of modification” value in test [1] is “B (50≤percent of modification <70%)”. Besides, the IC50 in test [2] is less than 100 nM. On to `C=CC(=O)N1CC[C@@H](N(C)c2nc(OC[C@@H]3C[C@@H](F)CN3C)nc3c(F)c(-c4ccc(F)c5sc(N)c(C#N)c45)c(C(F)(F)F)cc23)[C@H]1C` [Compound 55], for which the “GppNHp-KRAS G12C percent of modification” value in test [1] was “A (percent of modification ≥70%)”. For the same compound, the IC50 in test [2] (Homo sapiens, NCI-H358, 0.5 h) is less than 100 nM.

Regarding `C=CC(=O)N1CC[C@@H](N(CC)c2nc(OC[C@@]34CCCN3C[C@H](F)C4)nc3cc(-c4ccc(F)c5sc(N)c(C#N)c45)c(C#N)cc23)[C@@H]1C` [Compound 56], in test [1], the “GppNHp-KRAS G12C percent of modification” value is given as “B (50≤percent of modification <70%)”. Further, the IC50 in test [2] (Homo sapiens, NCI-H358, 0.5 h) was less than 100 nM. With `C=CC(=O)N1CC[C@@H](N(CC)c2nc(OC[C@@]34CCCN3C[C@H](F)C4)nc3c(F)c(-c4ccc(F)c5sc(N)c(C#N)c45)ccc23)[C@@H]1C` [Compound 57], the “GppNHp-KRAS G12C percent of modification” value in test [1] is “B (50≤percent of modification <70%)”. The half-maximal inhibitory concentration (IC50) in test [2] (Homo sapiens, NCI-H358, 0.5 h) is less than 100 nM. On to `C=CC(=O)N1CC[C@@H](N(CC)c2nc(OC[C@@H]3CCCN3C)nc3c(F)c(-c4ccc(F)c5sc(N)c(C#N)c45)c(Cl)cc23)[C@H]1C` [Compound 58], for which the “GppNHp-KRAS G12C percent of modification” value in test [1] is “A (percent of modification ≥70%)”. Also, the IC50 in test [2] (Homo sapiens, NCI-H358, 0.5 h) is less than 100 nM. Take `C=CC(=O)N1CC[C@@H](N(C)c2nc(OC[C@@H]3CCCN3C)nc3c(F)c(-c4ccc(F)c5sc(N)c(C#N)c45)c(Cl)cc23)[C@H]1C` [Compound 59]: in test [1], the “GppNHp-KRAS G12C percent of modification” value is on record as “A (percent of modification ≥70%)”. This compound returned an IC50 in test [2] of less than 100 nM. With `C=CC(=O)N1CC[C@@H](N(CC)c2nc(OC[C@@H]3C[C@@H](F)CN3C)nc3c(F)c(-c4ccc(F)c5sc(N)c(C#N)c45)c(Cl)cc23)[C@H]1C` [Compound 60], the “GppNHp-KRAS G12C percent of modification” value in test [1] was “B (50≤percent of modification <70%)”. The IC50 in test [2] (Homo sapiens, NCI-H358, 0.5 h) is less than 100 nM. For `C=CC(=O)N1CC[C@@H](N(C)c2nc(OC[C@@H]3C[C@@H](F)CN3C)nc3c(F)c(-c4ccc(F)c5sc(N)c(C#N)c45)c(Cl)cc23)[C@H]1C` [Compound 61], in that order: “C (10%≤percent of modification <50%)” and less than 100 nM.

`C=CC(=O)N1CC[C@@H](N(C)c2nc(OC[C@@H]3C[C@@H](OC)CN3C)nc3c(F)c(-c4ccc(F)c5sc(N)c(C#N)c45)c(Cl)cc23)[C@H]1C` [Compound 63, 4-(4-(((2R,3R)-1-acryloyl-2-methylpyrrolidin-3-yl)(methyl)amino)-6-chloro-8-fluoro-2-(((2S,4R)-4-methoxy-1-methylpyrrolidin-2-yl)methoxy)quinazolin-7-yl)-2-amino-7-fluorobenzo[b]thiophene-3-carbonitrile]: in test [1], the “GppNHp-KRAS G12C percent of modification” value is “B (50≤percent of modification <70%)”. Further, the IC50 in test [2] (Homo sapiens, NCI-H358, 0.5 h) is less than 100 nM.

Take `C=CC(=O)N1CC[C@@H](N(C)c2nc(OC[C@@H]3CC4(CC4)CN3C)nc3c(F)c(-c4ccc(F)c5sc(N)c(C#N)c45)c(Cl)cc23)[C@H]1C` [Compound 64]: the “GppNHp-KRAS G12C percent of modification” value in test [1] was “B (50≤percent of modification <70%)”. Further, the IC50 in test [2] (Homo sapiens, NCI-H358, 0.5 h) was less than 100 nM.

For `C=CC(=O)N1CC[C@@H](N(CC)c2nc(OC[C@@H]3CC4(CC4)CN3C)nc3c(F)c(-c4ccc(F)c5sc(N)c(C#N)c45)c(C(F)(F)F)cc23)[C@H]1C` [Compound 65], the “GppNHp-KRAS G12C percent of modification” value in test [1] was “A (percent of modification ≥70%)”. The same compound yielded an IC50 in test [2] (Homo sapiens, NCI-H358, 0.5 h) of less than 100 nM. In the case of `C=CC(=O)N1CC[C@@H](N(CC)c2nc(OC[C@@H]3CCCN3C)nc3c(F)c(-c4ccc(F)c5sc(N)c(C#N)c45)c(C(F)(F)F)cc23)[C@H]1C` [Compound 66], the “GppNHp-KRAS G12C percent of modification” value in test [1] is on record as “A (percent of modification ≥70%)”. For the same compound, the concentration for half-maximal inhibition (IC50) in test [2] (Homo sapiens, NCI-H358, 0.5 h) is less than 100 nM. `C=CC(=O)N1CC[C@@H](N(C)c2nc(OC[C@@H]3CCCN3C)nc3c(F)c(-c4ccc(F)c5sc(N)c(C#N)c45)c(C(F)(F)F)cc23)[C@H]1C` [Compound 67]: in test [1], the “GppNHp-KRAS G12C percent of modification” value is listed as “A (percent of modification ≥70%)”. Also, the IC50 in test [2] was less than 100 nM. As for `C=CC(=O)N1CC[C@@H](N(CC)c2nc(OC[C@@H]3C[C@@H](OC)CN3C)nc3c(F)c(-c4ccc(F)c5sc(N)c(C#N)c45)c(Cl)cc23)[C@H]1C` [Compound 73], the “GppNHp-KRAS G12C percent of modification” value in test [1] was “B (50≤percent of modification <70%)”. In test [2] (Homo sapiens, NCI-H358, 0.5 h), this compound had an IC50 of less than 100 nM. The compound `C=CC(=O)N1CC[C@@H](N(C)c2nc(OC[C@@H]3CCCN3CC)nc3c(F)c(-c4ccc(F)c5sc(N)c(C#N)c45)c(C(F)(F)F)cc23)[C@H]1C` [Compound 88] displayed an IC50 in test [2] (Homo sapiens, NCI-H358, 0.5 h) of less than 100 nM.
